What was measured:
megalin [1] = experiment: Contrast nephropathy model in kidney-specific megalin partial knockout mice (apoE-Cre), megalin/KIM-1 immunostaining (Reference Example 3); type: in vivo, mouse; conditions: 200 μL iomeprol, 48 h after administration, FIGS. 10A-10C
Experimental: Similar murine models of contrast nephropathy to those of Reference Example 1 were constructed using kidney-specific megalin partial knockout mice (apoE-Cre), and were used to verify the involvement of megalin in the onset of contrast-induced renal injuries.
Left kidneys were extracted from the apoE-Cre knockout mice, and 14 days later, right kidney pedicles were ligated for 30 minutes. Thereafter, reperfusion was carried out. After 24 hours from the start of reperfusion, 200 μL of iomeprol or normal saline was administered from the tail vein.
The stained slices were mounted with Slow Fade Gold Antifade Reagent (Life Technologies) and observed using a fluorescence microscopy (BZ-9000, Keyence). In particular, it was verified whether megalin and KIM-1 were expressed in the S1 and S2 segments of renal proximal tubules.

megalin [2] = experiment: EPMA mapping of iodine in kidney tissue of kidney-specific megalin complete knockout (NDRG1-Cre) and control mice (Reference Example 2); conditions: kidney-specific megalin complete knockout mice; 200 μL tail vein; kidneys extracted 3 h later; FIGS. 4-9
Text: (§1) EPMA is an electron microprobe (EMP) instrument that analyzes the constituent elements of a substance of interest by irradiating electron beams onto the substance and measuring the wavelengths and intensities of characteristic X-rays unique to the different elements, which are generated by the electron beams. […] The behaviors of contrast media per se can be verified by analyzing iodine content distribution.
(§2) In order to use right kidneys for analysis, 3 mm-thick sections containing a kidney pedicle portion were prepared, embedded in OCT compound, freeze-fixed with liquid nitrogen, and stored at −80° C.
(§3) Next, the stored sections were sliced at a thickness of 4 μm using a cryostat (CM1850, Leica Biosystems), and the obtained slices were attached onto carbon-coated grids and freeze-dried overnight.
(§4) 378 μm^2 cortical areas in the prepared tissue slices were analyzed by EPMA (EPMA 1610, Shimadzu Corporation, Kyoto, Japan) to map iodine present in the structures of the contrast media.

megalin [3] = biological target: megalin (Mus musculus, UniProt A2ARV4); experiment: as above; conditions: control (uninduced) mice; 200 μL tail vein; kidneys extracted 3 h later; FIGS. 4-9
Text: as §1, §2, §3, §4

[4] = test system: protein of interest (carrier; megalin ligand); experiment: Binding of contrast solid-phased magnetic beads to carrier protein, WB (Reference Example 5); conditions: 0/3/10 mM iomeprol solid-phased beads; protein 25 ng/μL; 4° C., 4 h; FIG. 21
Text: A substance that can serve as a carrier for an iodinated contrast medium was selected by reference to the information reported on megalin ligands. To be specific, one protein known to be filtered at the glomeruli and resorbed by renal proximal tubular epithelial cells via megalin was selected among megalin ligands.
The binding specificity between this protein and an iodinated contrast medium was verified using contrast solid-phased magnetic beads by following the procedures described below.
Five milligrams each of the 0 mM/3 mM/10 mM contrast solid-phased beads prepared in Reference Example 4 were dispersed and washed according to the procedure described in Reference Example 4. Next, the protein of interest (produced by LifeSpan BioSciences, Inc.) was dissolved in 100 mM KCL to prepare a 25 ng/μL solution. The above-washed beads were each dispersed in 200 μL of the prepared solution and reacted at 4° C. for 4 hours. Then, heat-eluted samples were prepared by following the procedure described in Reference Example 4.
The procedures for sample electrophoresis and WB analysis were performed in accordance with Reference Example 4. An antibody against the protein of interest (a polyclonal antibody produced by Bioss Inc.) was added at a concentration of 2 μg/mL and reacted at room temperature for 2 hours.

C57BL/6J mice = experiment: Inhibition of contrast-induced renal injuries in murine contrast nephropathy model (Example 2); type: in vivo, mouse
Experimental: In order to confirm the ability of cilastatin to inhibit renal injuries, C57BL/6J mice were simultaneously administered with an iodinated contrast medium and cilastatin, and the results were analyzed.
Left kidneys were extracted from the C57BL/6J mice, and 14 days later, right kidney pedicles were ligated for 30 minutes. Thereafter, reperfusion was carried out. […]
a) Contrast medium+cilastatin-treated group: 200 μL of iomeprol (CM)+400 mg/kg cilastatin (CS) (100 LL) b) Contrast medium+normal saline-treated group: 200 μL of iomeprol (CM)+100 μL of NS For each of the groups, after 48 hours from the medication, blood and urine samples were collected, and serum Cr, MN and cystatin C levels, and urinary Cr, NAG and KIM-1 levels were measured. Further, right kidneys were extracted and histologically evaluated by immunostaining with KIM-1 and staining with PAS. […] Serum cystatin C and urinary KIM-1 measurements were contracted to Oriental Yeast Co., Ltd.
0.5±: Clear but weak granular staining present focally along the luminal surface of non-atrophic proximal tubules 1+: Clear but weak granular staining completely surrounding the luminal surface of non-atrophic proximal tubules 2+: Moderately intense granular staining completely surrounding the luminal surface of non-atrophic proximal tubules and extending into intercellular junctions 3+: Strong large granular staining completely surrounding the luminal surface of non-atrophic proximal tubules and extending into intercellular junctions […]
Individuals meeting these criteria were regarded as individuals with onset of contrast nephropathy.

megalin (Mus musculus, UniProt A2ARV4), sequence (A2ARV4 26-4660): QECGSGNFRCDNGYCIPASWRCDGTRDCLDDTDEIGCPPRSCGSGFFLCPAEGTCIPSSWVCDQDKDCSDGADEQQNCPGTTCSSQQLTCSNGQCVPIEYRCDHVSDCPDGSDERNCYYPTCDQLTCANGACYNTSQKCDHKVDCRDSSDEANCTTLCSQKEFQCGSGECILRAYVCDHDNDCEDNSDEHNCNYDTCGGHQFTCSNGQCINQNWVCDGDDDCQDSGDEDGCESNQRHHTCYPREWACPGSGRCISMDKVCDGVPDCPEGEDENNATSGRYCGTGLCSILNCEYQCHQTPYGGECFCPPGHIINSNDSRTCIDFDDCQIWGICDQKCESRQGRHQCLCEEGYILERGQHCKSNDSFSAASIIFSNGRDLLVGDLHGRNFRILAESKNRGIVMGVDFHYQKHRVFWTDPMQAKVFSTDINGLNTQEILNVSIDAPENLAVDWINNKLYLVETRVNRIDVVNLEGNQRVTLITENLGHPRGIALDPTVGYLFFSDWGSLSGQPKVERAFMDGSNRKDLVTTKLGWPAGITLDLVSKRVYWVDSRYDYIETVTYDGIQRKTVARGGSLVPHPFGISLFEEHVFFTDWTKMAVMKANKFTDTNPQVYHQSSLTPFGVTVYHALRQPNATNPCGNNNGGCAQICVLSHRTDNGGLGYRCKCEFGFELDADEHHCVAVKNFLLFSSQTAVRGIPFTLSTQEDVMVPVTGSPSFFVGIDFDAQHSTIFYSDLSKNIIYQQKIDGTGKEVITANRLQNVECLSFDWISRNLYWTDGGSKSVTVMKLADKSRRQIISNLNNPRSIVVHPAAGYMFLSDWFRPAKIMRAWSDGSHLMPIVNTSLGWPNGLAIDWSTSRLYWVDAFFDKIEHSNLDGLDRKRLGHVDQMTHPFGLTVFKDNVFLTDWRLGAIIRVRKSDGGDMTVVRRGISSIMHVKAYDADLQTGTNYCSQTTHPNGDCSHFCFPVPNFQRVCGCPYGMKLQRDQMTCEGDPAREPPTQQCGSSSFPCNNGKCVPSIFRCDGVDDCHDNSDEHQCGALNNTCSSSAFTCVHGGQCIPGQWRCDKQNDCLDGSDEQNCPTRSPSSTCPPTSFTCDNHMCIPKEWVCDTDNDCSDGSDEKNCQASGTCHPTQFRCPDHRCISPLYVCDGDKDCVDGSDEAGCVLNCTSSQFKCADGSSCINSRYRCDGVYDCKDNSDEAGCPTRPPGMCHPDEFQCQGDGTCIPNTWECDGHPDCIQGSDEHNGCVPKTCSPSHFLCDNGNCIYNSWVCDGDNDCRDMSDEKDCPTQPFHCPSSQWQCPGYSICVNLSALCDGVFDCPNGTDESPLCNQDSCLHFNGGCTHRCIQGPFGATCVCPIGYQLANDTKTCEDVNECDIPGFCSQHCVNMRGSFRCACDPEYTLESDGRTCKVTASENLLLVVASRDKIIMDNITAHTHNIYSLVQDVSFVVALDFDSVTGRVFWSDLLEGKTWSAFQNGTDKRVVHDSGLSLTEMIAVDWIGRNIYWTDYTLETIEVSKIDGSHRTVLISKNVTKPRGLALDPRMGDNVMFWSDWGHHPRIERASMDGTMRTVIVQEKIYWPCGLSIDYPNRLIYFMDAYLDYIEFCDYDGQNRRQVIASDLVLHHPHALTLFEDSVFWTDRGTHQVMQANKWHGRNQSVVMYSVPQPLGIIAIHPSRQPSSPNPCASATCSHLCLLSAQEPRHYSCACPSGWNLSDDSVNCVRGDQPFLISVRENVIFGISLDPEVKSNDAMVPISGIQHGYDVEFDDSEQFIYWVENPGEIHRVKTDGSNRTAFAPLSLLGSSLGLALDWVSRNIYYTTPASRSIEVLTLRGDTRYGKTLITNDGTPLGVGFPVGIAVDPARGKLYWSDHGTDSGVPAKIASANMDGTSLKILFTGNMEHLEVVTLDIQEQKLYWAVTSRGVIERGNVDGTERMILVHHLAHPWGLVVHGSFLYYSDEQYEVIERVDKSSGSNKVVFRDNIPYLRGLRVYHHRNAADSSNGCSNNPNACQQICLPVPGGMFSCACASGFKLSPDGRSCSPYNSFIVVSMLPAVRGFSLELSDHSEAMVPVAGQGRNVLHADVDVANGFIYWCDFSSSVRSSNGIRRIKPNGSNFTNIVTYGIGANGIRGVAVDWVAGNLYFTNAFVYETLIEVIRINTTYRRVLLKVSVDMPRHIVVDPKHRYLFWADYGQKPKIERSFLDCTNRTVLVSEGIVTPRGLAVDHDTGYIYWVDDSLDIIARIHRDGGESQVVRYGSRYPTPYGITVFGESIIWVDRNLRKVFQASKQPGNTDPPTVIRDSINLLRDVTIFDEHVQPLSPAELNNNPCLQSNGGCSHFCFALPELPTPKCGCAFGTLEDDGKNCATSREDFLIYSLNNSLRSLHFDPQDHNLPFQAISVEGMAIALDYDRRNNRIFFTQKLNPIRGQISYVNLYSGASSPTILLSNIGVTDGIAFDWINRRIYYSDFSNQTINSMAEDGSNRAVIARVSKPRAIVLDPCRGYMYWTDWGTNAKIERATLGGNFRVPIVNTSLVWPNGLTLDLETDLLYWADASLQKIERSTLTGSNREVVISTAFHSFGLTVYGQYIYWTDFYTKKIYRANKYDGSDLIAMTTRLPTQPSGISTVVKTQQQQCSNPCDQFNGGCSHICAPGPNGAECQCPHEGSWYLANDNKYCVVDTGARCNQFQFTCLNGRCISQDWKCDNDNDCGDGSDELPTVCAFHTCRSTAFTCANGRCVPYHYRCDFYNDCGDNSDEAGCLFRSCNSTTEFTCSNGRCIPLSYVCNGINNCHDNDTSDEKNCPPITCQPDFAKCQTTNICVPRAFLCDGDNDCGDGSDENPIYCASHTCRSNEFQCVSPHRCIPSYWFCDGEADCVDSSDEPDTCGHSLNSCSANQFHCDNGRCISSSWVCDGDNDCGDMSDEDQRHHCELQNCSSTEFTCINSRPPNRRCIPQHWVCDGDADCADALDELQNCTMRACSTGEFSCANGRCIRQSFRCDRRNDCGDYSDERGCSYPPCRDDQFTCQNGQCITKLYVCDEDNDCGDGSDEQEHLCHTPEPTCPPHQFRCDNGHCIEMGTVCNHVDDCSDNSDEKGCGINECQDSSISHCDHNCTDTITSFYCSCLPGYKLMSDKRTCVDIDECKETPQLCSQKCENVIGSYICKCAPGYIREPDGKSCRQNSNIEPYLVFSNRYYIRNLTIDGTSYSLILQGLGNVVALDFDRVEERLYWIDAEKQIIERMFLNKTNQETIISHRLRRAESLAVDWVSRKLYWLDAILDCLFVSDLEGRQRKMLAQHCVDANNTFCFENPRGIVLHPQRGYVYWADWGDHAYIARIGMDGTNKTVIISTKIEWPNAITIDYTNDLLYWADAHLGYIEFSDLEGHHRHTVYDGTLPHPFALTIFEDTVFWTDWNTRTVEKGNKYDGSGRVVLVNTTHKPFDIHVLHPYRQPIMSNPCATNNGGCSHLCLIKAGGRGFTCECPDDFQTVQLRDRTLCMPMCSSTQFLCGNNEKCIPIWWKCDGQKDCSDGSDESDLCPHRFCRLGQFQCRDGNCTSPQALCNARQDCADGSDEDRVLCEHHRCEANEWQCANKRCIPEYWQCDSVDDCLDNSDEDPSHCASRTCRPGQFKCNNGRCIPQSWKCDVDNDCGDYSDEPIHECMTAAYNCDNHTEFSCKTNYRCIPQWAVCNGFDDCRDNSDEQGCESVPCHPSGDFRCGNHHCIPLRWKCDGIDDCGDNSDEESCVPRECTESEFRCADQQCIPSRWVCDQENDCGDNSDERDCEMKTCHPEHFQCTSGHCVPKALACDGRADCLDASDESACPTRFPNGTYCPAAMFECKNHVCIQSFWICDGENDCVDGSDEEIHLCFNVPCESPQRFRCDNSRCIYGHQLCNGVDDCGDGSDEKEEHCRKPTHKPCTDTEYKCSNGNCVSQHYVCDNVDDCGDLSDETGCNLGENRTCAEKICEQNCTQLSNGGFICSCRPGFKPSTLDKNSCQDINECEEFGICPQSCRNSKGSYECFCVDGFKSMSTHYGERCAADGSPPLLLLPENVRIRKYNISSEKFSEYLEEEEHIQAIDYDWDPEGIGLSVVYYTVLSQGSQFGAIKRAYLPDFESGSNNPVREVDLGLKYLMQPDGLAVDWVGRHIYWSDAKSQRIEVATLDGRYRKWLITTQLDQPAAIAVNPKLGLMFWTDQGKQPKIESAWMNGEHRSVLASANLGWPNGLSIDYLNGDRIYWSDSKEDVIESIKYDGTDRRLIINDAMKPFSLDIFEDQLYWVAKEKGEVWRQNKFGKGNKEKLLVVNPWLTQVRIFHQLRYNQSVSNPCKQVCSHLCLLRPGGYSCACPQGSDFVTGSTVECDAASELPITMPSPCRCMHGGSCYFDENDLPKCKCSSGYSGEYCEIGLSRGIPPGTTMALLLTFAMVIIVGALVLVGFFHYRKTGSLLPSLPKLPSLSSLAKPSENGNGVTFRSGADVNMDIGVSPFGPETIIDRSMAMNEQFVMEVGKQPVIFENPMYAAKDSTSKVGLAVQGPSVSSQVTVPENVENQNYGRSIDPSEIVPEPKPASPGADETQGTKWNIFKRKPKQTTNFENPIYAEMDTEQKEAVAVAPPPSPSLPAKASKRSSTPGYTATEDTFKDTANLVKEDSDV

## CN(C(=O)CO)c1c(I)c(C(=O)NCC(O)CO)c(I)c(C(=O)NCC(O)CO)c1I (stereo not shown) [iomeprol]
Megalin [1]
  KIM-1 expression relative to megalin expression in renal proximal tubular epithelial cells: expressed in a specific manner in the renal proximal tubular epithelial cells with expression of megalin
Megalin [2]
  iodine contents detected in kidney slices by EPMA, NDRG1-Cre mice versus control mice: lower
Megalin [3]
  iodine detected in kidney slices by EPMA, control mice: High concentrations of iodine were detected
[4]
  binding of protein of interest to contrast solid phased on beads (WB band, heat-eluted samples): bound in a specific manner
C57BL/6J mice; 200 μL iomeprol + 100 μL normal saline, 48 h after medication
  percentage of individuals with onset of contrast nephropathy: 27%
C57BL/6J mice; iomeprol + normal saline, individuals with increased serum creatinine, FIG. 17
  KIM-1 expression in kidney tissue (immunostaining): widely expressed, mainly in the S1 and S2 segments
C57BL/6J mice; iomeprol + normal saline, individuals with increased serum creatinine, FIG. 19
  PAS staining of kidney tissue: formation of vacuoles in renal proximal tubular epithelial cells was observed
